Converted amounts (≈) assume the structure as drawn. Ends that are not written are not given here. Peptide text beside a SMILES is read from it.
Key:
[1] = tested on: Gram-positive and Gram-negative bacteria; assay: Geometric mean of MICs (GMIC) over tested strains; type: cell-based; details: geometric mean of MICs against all tested bacteria
Protocol: (§1) The minimal inhibitory concentrations (MIC) of peptides were determined using microdilution assay in Müller–Hinton (MH) broth in general accordance with the guidelines of the European Committee for Antimicrobial Susceptibility Testing. Test plates were additionally pretreated with 0.1% bovine serum albumin (BSA) in distilled H2O (incubated for 1 h at 37°C) to reduce possible non-specific binding of peptides to the plastic surface of the wells, as proposed for AMP activity measuring ([Tossi et al., 1997]; [Wiegand et al., 2008]). Two-fold serial dilutions of peptides starting with 2 × stock concentration were prepared in sterile 10 mM sodium phosphate (Na-P) buffer, pH 7.4, with 0.1% BSA. Thus, final solutions contained 50% of Na-P diluted peptide and 50% of MH broth with bacteria. Bacteria for testing were grown overnight, then transferred into a fresh portion of 2.1% MH medium and additionally incubated for 2–3 h to obtain bacterial culture in its mid-logarithmic growth phase, which was diluted down to the final concentration of 1 × 10^6 CFU/ml. Concentration of bacteria in growth medium was calculated based on its absorbance at 620 nm.
After 20 h of incubation of AMPs with bacteria MICs were determined as lowest concentrations of AMPs completely preventing the visible growth of bacteria. […] Final MIC values were calculated as medians based on the results of 3–5 independent experiments.

MTT test = type: cell-based; details: human, serum-free RPMI-1640, overnight incubation, mean ± SD of three independent tests, read-out: IC50 of cytotoxic action toward human PBMC
Protocol: Cytotoxic activity of peptides toward various types of eukaryotic cells was assessed using the standard MTT [3-(4,5-Dimethylthiazol-2-yl)-2,5-diphenyltetrazolium bromide] test ([Mosmann, 1983]). Human peripheral blood mononuclear cells (PBMC) were isolated from the peripheral blood of healthy donors. Whole heparinized blood diluted 3-fold with sterile PBS was carefully layered upon the 5 ml of the sterile Ficoll-400 (Pharmacia, Sweden) with a density of 1.077 in a sterile 50 ml conical tube and then centrifuged at 600 g and 4°C for 40 min. The mononuclear “ring” remaining above the Ficoll was collected using a transfer pipette and placed in another tube. Cells were washed twice with sterile PBS, resuspended in RPMI-1640 culture medium and immediately used for the test. Tumor cell lines were purchased from Biolot (Saint Petersburg, Russia) and cultured at 37°C and 5% CO2 in RPMI-1640 medium (Biolot, Saint Petersburg, Russia) supplemented with 10% fetal bovine serum, glutamine, and penicillin-streptomycin combination. For the experiments, cells were washed from the medium they were growing in and resuspended in serum- and antibiotic-free RPMI-1640. Cells were added at not less than 2 × 10^4 per well in sterile flat bottom 96-well microplates containing serial dilutions of tested peptides in RPMI-1640. For the positive control (100% viable cells), RPMI-1640 medium was used instead of the peptide solution, whereas for the negative control (0% viable cells) medium replaced both peptide and cells. Test plates were incubated at 37°C and 5% CO2 overnight, after which MTT metabolic marker in PBS (5 mg/ml) was introduced into each well. After an additional 4 h incubation, the reaction was stopped by adding isopropanol supplemented with 0.04 M HCl, in which the formazan crystals (formed as a result of MTT reduction in presence of metabolically active cells) were dissolved, and OD at 540 nm was measured. Background absorbance at 690 nm was subtracted from the results to countervail any unspecific OD fluctuations. The % of surviving cells was found as:
(2) Survival(%)=(ODsample−OD0% viable)/(OD100% viable−OD0% viable)×100%,
(§2) where ODsample, OD0% viable, and OD100% viable are respectively values of the OD at 540 nm minus the OD at 690 nm for the test sample and negative or positive controls. IC50 toxicity values were determined by nonlinear regression analysis of the dose response curves using Sigma Plot 11 (Systat Software Inc., USA). The experiments were repeated three times, with 3 parallels of samples and 4–6 parallels of controls each time.

E. coli ML-35p = assay: Broth microdilution assay (MIC); type: cell-based, Escherichia coli; details: 50% MH broth/50% 10 mM Na-P buffer pH 7.4 with 0.1% BSA, 1×10^6 CFU/ml, 20 h, median of 3–6 independent experiments in triplicate
Protocol: as §1
After 20 h of incubation of AMPs with bacteria MICs were determined as lowest concentrations of AMPs completely preventing the visible growth of bacteria. Tests were performed in 60-well Terasaki microplates (10 µl end volume, V-shaped bottom; Sarstedt, Germany); dilutions in each test were made in triplicate. Final MIC values were calculated as medians based on the results of 3–5 independent experiments.

A. baumannii 7226/16 = tested on: A. baumannii 7226/16; parameters: key to Susceptibility category: R – resistant; I – intermediate; S – susceptible; details: initial susceptibility testing of the clinical isolate; ref supplying institutions; cited from earlier work
Source text: page 1: Supplementary Material Supplementary Table 1. Susceptibility profiles of tested clinical isolates of bacteria. Gram-negative: Gram-positive: antibiotic E. coli A. baumannii P. aeruginosa K. pneumoniae antibiotic S. aureus ESBL 521/17 7226/16 MDR 522/17 ESBL 344/17 1399/17 AMP* R [≥32] R [≥32 ] R [≥32 ] R [≥32] AMP* R [≥32 ] AMC R [16] - - S [≤2] AMC - CTX R [≥64] - - S [≤1] AMX - CAZ R [≥64] - R [≥64] S [≤1] AZM R [≥4] FEP R [≥64] - R [≥64] S [≤1] VAN S [≤2] ATM R [≥64] - - S [≤1] DOX I [2] IPM S [≤1] R [≥16] I [8] S [≤1] CLI I [2] MEM S [≤0.25 ] R [≥32 ] R [≥16] S [≤0.25] MEM I [4] AM ...

E. coli ESBL 521/17 = tested on: E. coli ESBL 521/17; parameters: key to Susceptibility category: R – resistant; I – intermediate; S – susceptible; details: initial susceptibility testing of the clinical isolate; ref supplying institutions; cited from earlier work
S. aureus 1399/17 = tested on: S. aureus 1399/17; parameters: key to Susceptibility category: R – resistant; I – intermediate; S – susceptible; details: initial susceptibility testing of the clinical isolate; ref supplying institutions; cited from earlier work
P. aeruginosa MDR 522/17 = tested on: P. aeruginosa MDR 522/17; parameters: key to Susceptibility category: R – resistant; I – intermediate; S – susceptible; details: initial susceptibility testing of the clinical isolate; ref supplying institutions; cited from earlier work
[2] = tested on: K. pneumoniae ESBL 344/17; parameters: key to Susceptibility category: R – resistant; I – intermediate; S – susceptible; details: initial susceptibility testing of the clinical isolate; ref supplying institutions; cited from earlier work;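 further: each antibiotic is scored as S (susceptible), I (intermediate) or R (resistant), with its MIC listed alongside, in a susceptibility profile of the clinical isolate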
U937 = assay: MTT test; type: cell-based, human; details: serum-free RPMI-1640, overnight incubation, mean ± SD of three independent tests, read-out: IC50 of cytotoxic action toward U937
Protocol: Cytotoxic activity of peptides toward various types of eukaryotic cells was assessed using the standard MTT [3-(4,5-Dimethylthiazol-2-yl)-2,5-diphenyltetrazolium bromide] test ([Mosmann, 1983]). Human peripheral blood mononuclear cells (PBMC) were isolated from the peripheral blood of healthy donors. Whole heparinized blood diluted 3-fold with sterile PBS was carefully layered upon the 5 ml of the sterile Ficoll-400 (Pharmacia, Sweden) with a density of 1.077 in a sterile 50 ml conical tube and then centrifuged at 600 g and 4°C for 40 min. The mononuclear “ring” remaining above the Ficoll was collected using a transfer pipette and placed in another tube. Cells were washed twice with sterile PBS, resuspended in RPMI-1640 culture medium and immediately used for the test. Tumor cell lines were purchased from Biolot (Saint Petersburg, Russia) and cultured at 37°C and 5% CO2 in RPMI-1640 medium (Biolot, Saint Petersburg, Russia) supplemented with 10% fetal bovine serum, glutamine, and penicillin-streptomycin combination. For the experiments, cells were washed from the medium they were growing in and resuspended in serum- and antibiotic-free RPMI-1640. Cells were added at not less than 2 × 10^4 per well in sterile flat bottom 96-well microplates containing serial dilutions of tested peptides in RPMI-1640. […] After an additional 4 h incubation, the reaction was stopped by adding isopropanol supplemented with 0.04 M HCl, in which the formazan crystals (formed as a result of MTT reduction in presence of metabolically active cells) were dissolved, and OD at 540 nm was measured. Background absorbance at 690 nm was subtracted from the results to countervail any unspecific OD fluctuations. […]
as §2, with “The experiments were repeated three times, with 3 parallels of samples and 4–6 parallels of controls each time.” left out

Row | Compound | GMIC total [1] | IC50 (MTT test) | MIC (E. coli ML-35p) | MIC of antibiotic (A. baumannii 7226/16) | Susceptibility category (A. baumannii 7226/16) | MIC of antibiotic (E. coli ESBL 521/17) | Susceptibility category (E. coli ESBL 521/17) | MIC of antibiotic (S. aureus 1399/17) | Susceptibility category (S. aureus 1399/17) | MIC of antibiotic (P. aeruginosa MDR 522/17) | Susceptibility category (P. aeruginosa MDR 522/17) | MIC of antibiotic [2] | Susceptibility category [2] | IC50 (U937)
1 | CC[C@H](C)[C@H](NC(=O)[C@H](CCCNC(=N)N)NC(=O)[C@@H](NC(=O)[C@H](Cc1ccccc1)NC(=O)[C@@H]1CCCN1C(=O)[C@@H]1CCCN1C(=O)[C@@H]1CCCN1C(=O)[C@H](Cc1c[nH]cn1)NC(=O)[C@@H](NC(=O)[C@H](CCCNC(=N)N)NC(=O)[C@H](CCCNC(=N)N)NC(=O)[C@H](Cc1ccccc1)NC(=O)[C@@H]1CCCN1C(=O)[C@H](CC(C)C)NC(=O)[C@H](CCCNC(=N)N)NC(=O)[C@H](Cc1ccccc1)NC(=O)[C@@H](N)CCCNC(=N)N)[C@@H](C)CC)C(C)C)C(=O)N[C@@H](Cc1c[nH]cn1)C(=O)N1CCC[C@H]1C(=O)N1CCC[C@H]1C(=O)N1CCC[C@H]1C(=O)N[C@@H](Cc1ccccc1)C(=O)N[C@@H](Cc1ccc(O)cc1)C(=O)N[C@@H](CCCNC(=N)N)C(=O)N[C@@H](CCCNC(=N)N)C(=O)N[C@@H](Cc1ccccc1)C(=O)N[C@@H](CC(C)C)C(=O)O [ChBac3.4-1-COOH (rec)] (H-RFRLPFRRIHPPPFVRIHPPPFYRRFL-OH; N-terminus assumed) | 5.0 µM | 40.8 ± 9.1 µM | 4 µM (≈ 14.1 µg/mL) |  |  |  |  |  |  |  |  |  |  | 
2 | CNC(C)C1CCC(N)C(OC2C(N)CC(N)C(OC3OCC(C)(O)C(NC)C3O)C2O)O1 (stereo not shown) [GEN, gentamicin] |  |  |  | ≥ 16 µg/mL | R | ≤ 1 µg/mL | S | ≥ 32 µg/mL | R | ≥ 16 µg/mL | R | ≤ 1 µg/mL | S | 
3 | C[C@@H](O)[C@H]1C(=O)N2C(C(=O)O)=C(S[C@@H]3CN[C@H](C(=O)N(C)C)C3)[C@H](C)[C@H]12 [MEM, meropenem] |  |  |  | ≥ 32 µg/mL | R | ≤ 0.25 µg/mL | S | 4 µg/mL | I | ≥ 16 µg/mL | R | ≤ 0.25 µg/mL | S | 
4 | RFRLPFRRIHPPPFVRIHPPPFYRRFL-NH2 [ChBac3.4-1-NH2] |  | 12.1 ± 0.8 µM | 4 µM |  |  |  |  |  |  |  |  |  |  | 
5 | RFRLPFRRPPIRIH-NH2 [ChBac3.4(1-14)-NH2] |  | > 64 µM | 8 µM |  |  |  |  |  |  |  |  |  |  | > 64 µM
6 | RFRLPFRRPPIRIHPPPFY-NH2 [ChBac3.4(1-19)-NH2] |  | > 64 µM | 4 µM |  |  |  |  |  |  |  |  |  |  | > 64 µM
